Source: PubChem BioAssay (NCI)
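Exposure lasted 48 hours, with cells grown in 96-well plates and compounds tested at five concentrations. At the GI50, growth is halved. TGI marks complete inhibition of growth.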

Key:
Assay in all cases: DTP human tumour cell line panel, 48 h
MALME-3M melanoma = system: MALME-3M melanoma
UACC-62 melanoma = system: UACC-62 melanoma
UACC-257 melanoma = system: UACC-257 melanoma
RXF 393 renal = system: RXF 393 renal
A498 renal = system: A498 renal
HOP-92 NSCLC = system: HOP-92 NSCLC
786-0 renal = system: 786-0 renal
HCT-15 colon = system: HCT-15 colon
CAKI-1 renal = system: CAKI-1 renal
U251 CNS = system: U251 CNS
SF-295 CNS = system: SF-295 CNS
SK-MEL-2 melanoma = system: SK-MEL-2 melanoma
UO-31 renal = system: UO-31 renal
ACHN renal = system: ACHN renal
NCI-H460 lung = system: NCI-H460 lung
M14 melanoma = system: M14 melanoma
NCI-H522 lung = system: NCI-H522 lung
IGROV1 ovarian = system: IGROV1 ovarian
OVCAR-5 ovarian = system: OVCAR-5 ovarian
COLO 205 colon = system: COLO 205 colon
NCI/ADR-RES ovarian = system: NCI/ADR-RES ovarian
LOX IMVI melanoma = system: LOX IMVI melanoma
A549 NSCLC = system: A549 NSCLC
SK-OV-3 ovarian = system: SK-OV-3 ovarian
RPMI-8226 leukemia = system: RPMI-8226 leukemia
SNB-19 CNS = system: SNB-19 CNS
SF-539 CNS = system: SF-539 CNS
SW-620 colon = system: SW-620 colon
EKVX NSCLC = system: EKVX NSCLC
MCF7 breast = system: MCF7 breast
OVCAR-4 ovarian = system: OVCAR-4 ovarian
MOLT-4 leukemia = system: MOLT-4 leukemia
MDA-MB-435 = system: MDA-MB-435
DU-145 prostate = system: DU-145 prostate
SK-MEL-28 melanoma = system: SK-MEL-28 melanoma
HCT-116 colon = system: HCT-116 colon
K-562 leukemia = system: K-562 leukemia
MDA-MB-231 breast = system: MDA-MB-231 breast
SK-MEL-5 melanoma = system: SK-MEL-5 melanoma
TK-10 renal = system: TK-10 renal
HOP-62 NSCLC = system: HOP-62 NSCLC
CCRF-CEM leukemia = system: CCRF-CEM leukemia
KM12 colon = system: KM12 colon
SF-268 CNS = system: SF-268 CNS
OVCAR-3 ovarian = system: OVCAR-3 ovarian
SN12C renal = system: SN12C renal
SNB-75 CNS = system: SNB-75 CNS
SR leukemia = system: SR leukemia
PC-3 prostate = system: PC-3 prostate
NCI-H23 lung = system: NCI-H23 lung
HS 578T breast = system: HS 578T breast
BT-549 breast = system: BT-549 breast
NCI-H226 lung = system: NCI-H226 lung
OVCAR-8 ovarian = system: OVCAR-8 ovarian
HL-60(TB) leukemia = system: HL-60(TB) leukemia

Compound: COc1cc2c(c3nc4ccccc4nc13)-c1ccc(SC)c(=O)cc1[C@@H](NC(C)=O)CC2
- TGI (MALME-3M melanoma): 0.0861 µM
- TGI (UACC-62 melanoma): > 100 µM
- TGI (UACC-257 melanoma): > 100 µM
- TGI (RXF 393 renal): > 100 µM
- TGI (A498 renal): > 65.1 µM
- TGI (HOP-92 NSCLC): > 75.1 µM
- TGI (786-0 renal): > 100 µM
- TGI (HCT-15 colon): > 21.7 µM
- TGI (CAKI-1 renal): > 100 µM
- TGI (U251 CNS): > 100 µM
- TGI (SF-295 CNS): > 100 µM
- TGI (SK-MEL-2 melanoma): > 100 µM
- TGI (UO-31 renal): > 100 µM
- TGI (ACHN renal): > 100 µM
- TGI (NCI-H460 lung): > 100 µM
- TGI (M14 melanoma): > 100 µM
- TGI (NCI-H522 lung): 0.151 µM
- TGI (IGROV1 ovarian): 0.528 µM
- TGI (OVCAR-5 ovarian): > 100 µM
- TGI (COLO 205 colon): 0.419 µM
- TGI (NCI/ADR-RES ovarian): 53 µM
- TGI (LOX IMVI melanoma): > 100 µM
- TGI (A549 NSCLC): > 100 µM
- TGI (SK-OV-3 ovarian): > 100 µM
- TGI (RPMI-8226 leukemia): > 100 µM
- TGI (SNB-19 CNS): > 100 µM
- TGI (SF-539 CNS): 0.0603 µM
- TGI (SW-620 colon): > 100 µM
- TGI (EKVX NSCLC): 0.795 µM
- TGI (MCF7 breast): > 100 µM
- TGI (OVCAR-4 ovarian): > 69.2 µM
- TGI (MOLT-4 leukemia): > 100 µM
- TGI (MDA-MB-435): 0.0693 µM
- TGI (DU-145 prostate): 0.838 µM
- TGI (SK-MEL-28 melanoma): > 100 µM
- TGI (HCT-116 colon): > 100 µM
- TGI (K-562 leukemia): > 100 µM
- TGI (MDA-MB-231 breast): > 100 µM
- TGI (SK-MEL-5 melanoma): > 100 µM
- TGI (TK-10 renal): > 100 µM
- TGI (HOP-62 NSCLC): > 100 µM
- TGI (CCRF-CEM leukemia): > 100 µM
- TGI (KM12 colon): > 100 µM
- TGI (SF-268 CNS): > 100 µM
- TGI (OVCAR-3 ovarian): > 100 µM
- TGI (SN12C renal): > 100 µM
- TGI (SNB-75 CNS): > 100 µM
- TGI (SR leukemia): > 100 µM
- TGI (PC-3 prostate): > 100 µM
- TGI (NCI-H23 lung): 0.066 µM
- TGI (HS 578T breast): 0.0543 µM

Compound: Cc1cc2c(cc1Cl)SC(=Nc1ccc(Cl)cc1)N(S(=O)(=O)c1ccc(Br)s1)S2(=O)=O
- GI50 (UACC-62 melanoma): 12 µM
- TGI (UACC-62 melanoma): 25.3 µM
- GI50 (UACC-257 melanoma): 16 µM
- TGI (UACC-257 melanoma): 38.7 µM
- GI50 (A498 renal): 5.02 µM
- TGI (A498 renal): 26.2 µM
- GI50 (HOP-92 NSCLC): 12.1 µM
- TGI (HOP-92 NSCLC): 46.1 µM
- GI50 (BT-549 breast): 19.2 µM
- TGI (BT-549 breast): 48.8 µM
- GI50 (786-0 renal): 11.7 µM
- TGI (786-0 renal): 24.7 µM
- GI50 (HCT-15 colon): 11.9 µM
- TGI (HCT-15 colon): 29.7 µM
- GI50 (CAKI-1 renal): 19.5 µM
- TGI (CAKI-1 renal): 42.2 µM
- GI50 (U251 CNS): 8.57 µM
- TGI (U251 CNS): 21.4 µM
- GI50 (SF-295 CNS): 24.7 µM
- TGI (SF-295 CNS): 60.5 µM
- GI50 (SK-MEL-2 melanoma): 35.3 µM
- TGI (SK-MEL-2 melanoma): > 100 µM
- GI50 (NCI-H226 lung): 14 µM
- TGI (NCI-H226 lung): 47.1 µM
- GI50 (UO-31 renal): 24.6 µM
- TGI (UO-31 renal): 61 µM
- GI50 (ACHN renal): 9.05 µM
- TGI (ACHN renal): 21.1 µM
- GI50 (NCI-H460 lung): 35.2 µM
- TGI (NCI-H460 lung): > 100 µM
- GI50 (M14 melanoma): 21.9 µM
- TGI (M14 melanoma): 56.5 µM
- GI50 (NCI-H522 lung): 37.3 µM
- TGI (NCI-H522 lung): > 100 µM
- GI50 (OVCAR-8 ovarian): 18.8 µM
- TGI (OVCAR-8 ovarian): 46.1 µM
- GI50 (IGROV1 ovarian): 17.6 µM
- TGI (IGROV1 ovarian): 55.2 µM
- GI50 (OVCAR-5 ovarian): 15.7 µM
- TGI (OVCAR-5 ovarian): 34.1 µM
- GI50 (COLO 205 colon): 17.8 µM
- TGI (COLO 205 colon): > 100 µM
- GI50 (NCI/ADR-RES ovarian): 12.2 µM
- TGI (NCI/ADR-RES ovarian): 26.5 µM
- GI50 (LOX IMVI melanoma): 9.26 µM
- TGI (LOX IMVI melanoma): 24.3 µM
- GI50 (A549 NSCLC): 18 µM
- TGI (A549 NSCLC): 48.7 µM
- GI50 (SK-OV-3 ovarian): 34.5 µM
- TGI (SK-OV-3 ovarian): 97.1 µM
- GI50 (RPMI-8226 leukemia): 3.7 µM
- TGI (RPMI-8226 leukemia): 21.5 µM
- GI50 (SNB-19 CNS): 13.7 µM
- TGI (SNB-19 CNS): 46.4 µM
- GI50 (SF-539 CNS): 2.01 µM
- TGI (SF-539 CNS): 9.93 µM
- GI50 (SW-620 colon): 24.5 µM
- TGI (SW-620 colon): > 100 µM
- GI50 (EKVX NSCLC): 16.8 µM
- TGI (EKVX NSCLC): 36.3 µM
- GI50 (MCF7 breast): 46.3 µM
- TGI (MCF7 breast): > 100 µM
- GI50 (OVCAR-4 ovarian): 18.4 µM
- TGI (OVCAR-4 ovarian): 66.3 µM
- GI50 (MDA-MB-435): 14.1 µM
- TGI (MDA-MB-435): 31.3 µM
- GI50 (DU-145 prostate): 13.3 µM
- TGI (DU-145 prostate): 26.1 µM
- GI50 (SK-MEL-28 melanoma): 24.6 µM
- TGI (SK-MEL-28 melanoma): > 100 µM
- GI50 (HCT-116 colon): 14.7 µM
- TGI (HCT-116 colon): 27.8 µM
- GI50 (K-562 leukemia): 16.4 µM
- TGI (K-562 leukemia): 77.5 µM
- GI50 (HL-60(TB) leukemia): 22.4 µM
- TGI (HL-60(TB) leukemia): 46.8 µM
- GI50 (MDA-MB-231 breast): 12.9 µM
- TGI (MDA-MB-231 breast): 38.9 µM
- GI50 (SK-MEL-5 melanoma): 13.7 µM
- TGI (SK-MEL-5 melanoma): 43.3 µM
- GI50 (TK-10 renal): 19.9 µM
- TGI (TK-10 renal): 49.6 µM
- GI50 (HOP-62 NSCLC): 17.8 µM
- TGI (HOP-62 NSCLC): 37.4 µM
- GI50 (CCRF-CEM leukemia): 10.1 µM
- TGI (CCRF-CEM leukemia): > 100 µM
- GI50 (KM12 colon): 16.2 µM
- TGI (KM12 colon): 37.7 µM
- GI50 (SF-268 CNS): 32.2 µM
- TGI (SF-268 CNS): > 100 µM
- GI50 (OVCAR-3 ovarian): 15 µM
- TGI (OVCAR-3 ovarian): 31.1 µM
- GI50 (SN12C renal): 14.1 µM
- TGI (SN12C renal): 32.6 µM
- GI50 (SR leukemia): 5.11 µM
- TGI (SR leukemia): > 100 µM
- GI50 (PC-3 prostate): 12.5 µM
- TGI (PC-3 prostate): 27.1 µM
- GI50 (NCI-H23 lung): 10.8 µM
- TGI (NCI-H23 lung): 25 µM
- GI50 (HS 578T breast): 25.3 µM
- TGI (HS 578T breast): 62.2 µM

Compound: CC(=O)OCC1OC(n2c(-c3ccc(C)cc3)cc(-c3ccco3)c(C#N)c2=O)C(OC(C)=O)C(OC(C)=O)C1OC(C)=O (stereo not given)
- TGI (HL-60(TB) leukemia): > 100 µM
- TGI (SNB-75 CNS): > 100 µM
